Results as given in patent US20230014352A1, “INHALED STATINS AS BRONCHODILATORS TO IMPROVE LUNG FUNCTION IN RESPIRATORY DISEASES” (priority 2019, published 2023).

Test system: airways of C57BL/6 mice
Test: Non-inflammatory methacholine (MCh)-induced hypercontractile mouse model, airway % contraction in precision-cut lung slices
Type: in vivo
Conditions: intratracheal 5 mg/kg for 5 days, 1 hr prior to each MCh nebulization
Description: In this model, mice were administered nebulized methacholine (MCh) during postnatal maturation of ASM, which causes a hypercontractile phenotype without any induction of inflammatory responses.
All mouse experiments were approved by the Institutional Animal Care and Use Committee at Brigham & Women's Hospital, Harvard Medical School. The methacholine-induced hypercontractile mouse model has been described in K. R. Patel et al., FASEB J (2017) 31(10):4335-46. Briefly, mice (C57BL/6) were exposed to nebulized MCh (30 mg/mL) for 10 min daily between P15 and −20 (5 days). Control mice were administered nebulized normal saline. This establishes the MCh hyper-contractility asthma phenotype, a non-inflammatory model of asthmatic airway hyperresponsiveness AHR. Mice were administered intratracheal (i.t.) pitavastatin (5 mg/kg for five days) or vehicle control for 1 hour before each MCh nebulization. For airway % contraction assays, mouse precision-cut lung slices (PCLS) were stimulated to contract by increasing MCh concentrations (0.1-100 μM). For each measurement, at least n=4 mice were used from 2 independent experiments, and a total of 20-30 airways per lung.

O=C(O)C[C@H](O)C[C@H](O)/C=C/c1c(C2CC2)nc2ccccc2c1-c1ccc(F)cc1 [pitavastatin]
% airway contraction (FIG. 11B): 14.2%
% contraction of airways (PCLS response to 500 nM MCh, FIG. 6): 7.3%
